Key:
[1] = system: streptozotocin diabetic rats; experiment: Treatment of streptozotocin diabetic rats for 4 weeks; type: in vivo, Sprague-Dawley rats
Procedure: FIG. 45. […] Prior to treatment the blood glucose levels taken every 2 days for 6 days prior to treatment are between 300-600 mg/dl. After randomization the average blood sugar level of each group are between 421 and 433 mg/dl. Rats were treated every 2 days subcutaneously. […] Non-fasting sugar levels taken every 2 days were added together to obtain area under the curve (AUC) for each animal to average out cyclical variability in each animal.
FIG. 46. This is a graph showing the average body weight of streptozotocin diabetic rats at the end of the 4 week treatment period (+/−standard deviation; n=4) that started at 13th day after diabetes induction with 60 mg/kg streptozotocin. The starting weights of all animals prior to streptozotocin treatment are within 240 to 260 grams.
FIG. 47. […] The islets were located and the number of BrDU positive nuclei in each islet was counted.
Briefly for this in vivo protocol, 12-week old male Sprague-Dawley (HSD) rats (Harlan, Indianapolis, Ind.) were housed at 23±1° C. in a 12:12-h light:dark cycle, and were given access to food and water ad libitium (diet LM-485, Teklad, Madison, Wis.). […] Non-fasting blood sugar levels were monitored daily from day 2 by tail-tip snip blood collection (5 ul) and blood sugar levels were measured using Glucometer (Ascensia Elite, Bayer Co. Mishawaka, Ind.) and test strips (Bayer Co. Mishawaka, Ind.). […]

[2] = in vivo; cited from earlier work
DPP-9 = DPP-9 (Homo sapiens, UniProt Q86TI2); details: concentrations approximating those from therapeutic doses; cited from earlier work
Chain of DPP-9 (Q86TI2 whole entry): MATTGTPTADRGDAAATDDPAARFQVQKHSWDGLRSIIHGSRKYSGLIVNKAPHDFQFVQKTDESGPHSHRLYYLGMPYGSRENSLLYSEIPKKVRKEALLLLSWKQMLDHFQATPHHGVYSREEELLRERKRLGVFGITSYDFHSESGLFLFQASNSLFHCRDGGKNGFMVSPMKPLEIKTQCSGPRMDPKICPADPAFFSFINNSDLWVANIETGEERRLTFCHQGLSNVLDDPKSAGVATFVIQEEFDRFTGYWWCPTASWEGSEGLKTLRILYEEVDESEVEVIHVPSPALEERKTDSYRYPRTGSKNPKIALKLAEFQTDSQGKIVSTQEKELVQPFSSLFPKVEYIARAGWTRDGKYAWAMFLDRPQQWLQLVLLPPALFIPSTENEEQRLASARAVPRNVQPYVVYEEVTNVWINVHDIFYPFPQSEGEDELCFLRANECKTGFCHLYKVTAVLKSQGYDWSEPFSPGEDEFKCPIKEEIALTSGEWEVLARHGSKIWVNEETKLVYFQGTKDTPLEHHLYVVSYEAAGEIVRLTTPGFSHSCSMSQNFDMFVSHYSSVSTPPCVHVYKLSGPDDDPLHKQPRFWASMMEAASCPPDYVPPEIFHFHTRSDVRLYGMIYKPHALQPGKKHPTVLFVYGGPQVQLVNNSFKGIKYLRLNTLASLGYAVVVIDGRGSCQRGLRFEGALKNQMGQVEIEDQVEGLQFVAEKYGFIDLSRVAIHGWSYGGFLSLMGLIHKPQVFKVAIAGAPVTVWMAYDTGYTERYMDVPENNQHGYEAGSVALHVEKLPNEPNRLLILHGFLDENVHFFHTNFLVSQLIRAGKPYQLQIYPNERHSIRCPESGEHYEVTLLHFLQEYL

DPP-8 = DPP-8 (Homo sapiens, UniProt Q6V1X1); details: concentrations approximating those from therapeutic doses; cited from earlier work
Chain of DPP-8 (Q6V1X1 whole entry): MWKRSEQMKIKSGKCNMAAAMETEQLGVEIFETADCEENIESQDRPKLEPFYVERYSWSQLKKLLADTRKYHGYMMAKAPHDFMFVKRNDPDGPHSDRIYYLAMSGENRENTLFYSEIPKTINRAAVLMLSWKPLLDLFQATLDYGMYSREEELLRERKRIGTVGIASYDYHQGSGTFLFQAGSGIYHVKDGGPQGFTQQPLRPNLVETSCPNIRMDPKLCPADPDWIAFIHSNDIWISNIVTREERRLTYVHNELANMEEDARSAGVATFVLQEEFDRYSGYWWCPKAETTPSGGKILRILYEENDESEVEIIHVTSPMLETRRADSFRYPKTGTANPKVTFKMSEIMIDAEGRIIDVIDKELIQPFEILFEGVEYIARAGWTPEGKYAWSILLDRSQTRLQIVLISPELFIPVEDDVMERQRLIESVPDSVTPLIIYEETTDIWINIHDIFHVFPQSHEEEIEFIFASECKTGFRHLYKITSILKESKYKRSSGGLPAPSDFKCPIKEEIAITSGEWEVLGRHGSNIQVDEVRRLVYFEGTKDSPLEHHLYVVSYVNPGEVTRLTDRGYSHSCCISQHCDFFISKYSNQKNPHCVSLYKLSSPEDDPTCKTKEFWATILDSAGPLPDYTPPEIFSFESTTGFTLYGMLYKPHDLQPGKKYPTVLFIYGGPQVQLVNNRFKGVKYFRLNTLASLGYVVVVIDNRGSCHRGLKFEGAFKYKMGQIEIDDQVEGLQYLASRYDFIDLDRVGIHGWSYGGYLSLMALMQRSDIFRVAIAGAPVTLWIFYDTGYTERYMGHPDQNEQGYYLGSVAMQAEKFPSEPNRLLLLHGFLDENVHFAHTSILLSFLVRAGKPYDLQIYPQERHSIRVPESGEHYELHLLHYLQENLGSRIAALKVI

[3] = native peptides; cited from earlier work

For `CC[C@H](C)[C@H](NC(=O)[C@H](Cc1ccccc1)NC(=O)[C@H](CCC(=O)O)NC(=O)[C@H](CCCCN)NC(=O)[C@H](C)NC(=O)[C@H](C)NC(=O)[C@H](CCC(N)=O)NC(=O)CNC(=O)[C@H](CCC(=O)O)NC(=O)[C@H](CC(C)C)NC(=O)[C@H](Cc1ccc(O)cc1)NC(=O)[C@H](CO)NC(=O)[C@H](CO)NC(=O)[C@@H](NC(=O)[C@H](CC(=O)O)NC(=O)[C@H](CO)NC(=O)[C@@H](NC(=O)[C@H](Cc1ccccc1)NC(=O)[C@@H](NC(=O)CNC(=O)[C@H](CCC(=O)O)NC(=O)[C@H](C)NC(=O)[C@@H](N)Cc1c[nH]cn1)[C@@H](C)O)[C@@H](C)O)C(C)C)C(=O)N[C@@H](C)C(=O)N[C@@H](Cc1c[nH]c2ccccc12)C(=O)N[C@@H](CC(C)C)C(=O)N[C@H](C(=O)N[C@@H](CCCCN)C(=O)NCC(=O)N[C@@H](CCCNC(=N)N)C(N)=O)C(C)C` [GLP-1, GLP-1 (7-36 amide)], the “BrdU positive nuclei (cell divisions) in the islets” value ([1]; pancreas histology after 4 weeks, versus PBS or empty carrier) was “significantly more cell divisions” and the “body weight at the end of the 4 week treatment” value ([1]; s.c. every 2 days for 4 weeks, 20 ug GLP-1) was “greater variability in response”.

In the case of `COc1ccc2[nH]c([S+]([O-])Cc3ncc(C)c(OC)c3C)nc2c1` (stereo not drawn) [Omeprazole], the LD50 [2] is listed as over 4000 mg/kg.

For `N[C@@H](CC(=O)N1CCn2c(nnc2C(F)(F)F)C1)Cc1cc(F)c(F)cc1F` [Sitagliptin, 7-[(3R)-3-amino-1-oxo-4-(2,4,5-trifluorophenyl)butyl]-5,6,7,8-tetrahydro-3-(trifluoromethyl)-1,2,4-triazolo[4,3-a]pyrazine phosphate (1:1) monohydrate], the “inhibition of DPP-9 activity in vitro” value (DPP-9) is given as “does not inhibit” and the “inhibition of DPP-8 activity in vitro” value (DPP-8) is given as “does not inhibit”.

In the case of “native gastrin: native peptide hormone with short biological half-life”, the biological half-life [3] is listed as “few minutes”.

Source: US10507248B2, “Hydrophobic core carrier compositions for delivery of therapeutic agents, methods of making and using the same” (PharmaIn Corporation, priority 2005, dated 2019)
